“Also recorded” adds a separate entry of the source.
Biological target: T1, PIM-1 kinase (Homo sapiens, UniProt P11309)
T1 construct: purchased Cell Signaling Technology Inc., Boston, USA
Assay: In vitro assay for PIM-1 kinase inhibition (PIM-1 Kinase Assay Kit, colorimetric ELISA readout)
Type: biochemical
Details: for PIM-1 kinase inhibition (result in words): increasing concentrations 0.1 to 100 µM, Fig. 1 (1.5 ng PIM-1 kinase) and Fig. 2 (2.5 ng PIM-1 kinase); for % remaining PIM-1 kinase activity: test compound at final concentration 100 µM, normalized to positive control (no test compound) = 100 % activity, 1.5 ng (A-D series) or 2.5 ng (E series) PIM-1 kinase, 200 µM ATP
Procedure: • Fig. 1: The compounds 1-chloro-5-([1,4]diazepane-1-sulfonyl)-8-propoxy-isoquinoline (compound A), 1-chloro-5-(piperazin-1-sulfonyl)-8-methoxy-isoquinoline (compound B), […] (compound C), and 1-chloro-5-([1,4]diazepane-1-sulfonyl)-6-methoxy-isoquinoline (compound D) are potent PIM kinase inhibitors. In vitro assays of PIM-1 kinase activity (1.5 ng) in the present of increasing concentrations of the compounds A, B, C or D were performed as described within example 5. An assay without additional test compound served as positive control for the assay (pos) and an assay without PIM-1 kinase served as negative assay (neg). […] Each assay result was normalized in comparison to the positive control which was defined as 100 % activity. […] In vitro assays of PIM-1 kinase activity (2.5 ng) in the present of increasing concentrations of the compound E were performed as described within example 5. An assay without additional test compound served as positive control for the assay (pos) and an assay without PIM-1 kinase served as negative assay (neg). […] Each assay result was normalized in comparison to the positive control which was defined as 100 % activity.
The in vitro assay for PIM-1 kinase inhibition was performed using the PIM-1 Kinase Assay Kit (Cell Signaling Technology Inc., Boston, USA) according to the manufacture's instruction. Briefly, 1.5 or 2.5 ng PIM-1 kinase has been dissolved in 50 µl assay buffer (25 mM Tris-Hcl (pH 7.5), 10 mM MgCl2, 5 mM beta-glycerophosphate, 0.1 mM Na3VO4, 2 mM DTT, 200 µM ATP, and 1.5 µM peptide substrate) and test compound has been added to a final concentration in a range of 0.1 to 100 µM. After 30 minutes incubation at ambient temperature the reaction was stopped by adding 50 µl Stop buffer (50 mM EDTA, pH 8) per reaction. An aliquot of 25 µl per reaction was diluted each by 75 µl water and transferred to a 96-well streptavidin-coated plate. After 60 minutes incubation and three times washing with PBS, 100 µl/well primary antibody (Phospho-Bad (Ser112) antibody, 1:1000 diluted in PBS) was added. After further 2 h incubation and three times washing with PBS, an usual colorimetric ELISA assay was performed using a HRP labeled second antibody according to the manufacture's instructions. A PIM kinase reaction without addition of a test compound served as positive control (pos) and an assay without PIM kinase served as negative control (neg). […] The PIM-1 kinase inhibition of the test compounds (1-chloro-5-([1,4]diazepane-1-sulfonyl)-8-propoxy-isoquinoline (compound A), 1-chloro-5-(piperazin-1-sulfonyl)-8-methoxy-isoquinoline (compound B), 1-methyl-5-([1,4]diazepane-1-sulfonyl)-8-methoxy-isoquinoline (compound C), and 1-chloro-5-([1,4]diazepane-1-sulfonyl)-6-methoxy-isoquinoline (compound D)) was measured in a first series of assays, and the one of the compound 5-([1,4]diazepane-1-sulfonyl)-8-methoxy-isoquinoline (compound E) was measured in a second series of assays. Within each series of assays the measured PIM-1 kinase activity was normalized in comparison to the positive control (pos) which was defined as 100 % activity. […] The table below summarizes the percentage of the remaining PIM-1 kinase activity in the presence of the test compounds in a final concentration of 100 µM.

T1 sequence (P11309 whole entry): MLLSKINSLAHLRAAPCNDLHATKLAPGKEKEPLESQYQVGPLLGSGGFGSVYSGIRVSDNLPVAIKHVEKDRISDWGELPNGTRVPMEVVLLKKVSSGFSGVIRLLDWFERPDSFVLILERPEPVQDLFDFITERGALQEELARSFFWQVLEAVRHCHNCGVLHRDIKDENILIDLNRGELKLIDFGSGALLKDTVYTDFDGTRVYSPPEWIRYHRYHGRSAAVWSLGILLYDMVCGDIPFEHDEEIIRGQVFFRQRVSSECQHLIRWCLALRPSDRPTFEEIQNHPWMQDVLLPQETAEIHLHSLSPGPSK

| Compound | PIM-1 kinase inhibition (result in words) | % remaining PIM-1 kinase activity |
| --- | --- | --- |
| COc1ccc(S(=O)(=O)N2CCNCC2)c2ccnc(Cl)c12 [B, 1-chloro-5-(piperazin-1-sulfonyl)-8-methoxy-isoquinoline] | potent PIM-1 kinase inhibitors; also recorded: potent PIM inhibitory effect | 33% |
| COc1ccc(S(=O)(=O)N2CCCNCC2)c2ccnc(C)c12 [C, 1-methyl-5-([1,4]diazepane-1-sulfonyl)-8-methoxy-isoquinoline] | potent PIM-1 kinase inhibitors; also recorded: potent PIM inhibitory effect | 31% |
| CCCOc1ccc(S(=O)(=O)N2CCCNCC2)c2ccnc(Cl)c12 [Compound A, 1-chloro-5-([1,4]diazepane-1-sulfonyl)-8-propoxy-isoquinoline] | potent PIM-1 kinase inhibitors; also recorded: potent PIM inhibitory effect | 23% |
| COc1ccc2c(Cl)nccc2c1S(=O)(=O)N1CCCNCC1 [D, 1-chloro-5-([1,4]diazepane-1-sulfonyl)-6-methoxy-isoquinoline] | potent PIM-1 kinase inhibitors; also recorded: potent PIM inhibitory effect | 29% |
| COc1ccc(S(=O)(=O)N2CCCNCC2)c2ccncc12 [E, 5-([1,4]diazepane-1-sulfonyl)-8-methoxy-isoquinoline, reference compound] | at most a moderate PIM-1 kinase inhibition; also recorded: only weak PIM inhibitory effect | 46% |
| O=S(=O)(c1cccc2cnccc12)N1CCCNCC1 [F, Fasudil, reference compound] | at the most very weak PIM-1 inhibition | 71% |
| COc1ccc(S(=O)(=O)N2CCCNCC2)c2ccnc(Cl)c12 [G, 1-chloro-8-methoxy-Fasudil, reference compound] | very potent PIM-1 inhibitor | 17% |
